Reference: patent US11084829B2, “Ubiquitin-specific-processing protease 7 (USP7) modulators and uses thereof” (RAPT THERAPEUTICS, INC., priority 2018, dated 2021)

molecular target: USP7 (Homo sapiens, UniProt Q93009); experiment: USP7 inhibitory potency (IC50); format: biochemical
Description: Activity for compounds described herein is provided in Table 2, wherein potency levels are provided as follows: (Potency: USP7 IC50: A<0.01 μM; B=0.01-0.1 μM; C=>0.1 μM.

USP7, sequence (Q93009 whole entry): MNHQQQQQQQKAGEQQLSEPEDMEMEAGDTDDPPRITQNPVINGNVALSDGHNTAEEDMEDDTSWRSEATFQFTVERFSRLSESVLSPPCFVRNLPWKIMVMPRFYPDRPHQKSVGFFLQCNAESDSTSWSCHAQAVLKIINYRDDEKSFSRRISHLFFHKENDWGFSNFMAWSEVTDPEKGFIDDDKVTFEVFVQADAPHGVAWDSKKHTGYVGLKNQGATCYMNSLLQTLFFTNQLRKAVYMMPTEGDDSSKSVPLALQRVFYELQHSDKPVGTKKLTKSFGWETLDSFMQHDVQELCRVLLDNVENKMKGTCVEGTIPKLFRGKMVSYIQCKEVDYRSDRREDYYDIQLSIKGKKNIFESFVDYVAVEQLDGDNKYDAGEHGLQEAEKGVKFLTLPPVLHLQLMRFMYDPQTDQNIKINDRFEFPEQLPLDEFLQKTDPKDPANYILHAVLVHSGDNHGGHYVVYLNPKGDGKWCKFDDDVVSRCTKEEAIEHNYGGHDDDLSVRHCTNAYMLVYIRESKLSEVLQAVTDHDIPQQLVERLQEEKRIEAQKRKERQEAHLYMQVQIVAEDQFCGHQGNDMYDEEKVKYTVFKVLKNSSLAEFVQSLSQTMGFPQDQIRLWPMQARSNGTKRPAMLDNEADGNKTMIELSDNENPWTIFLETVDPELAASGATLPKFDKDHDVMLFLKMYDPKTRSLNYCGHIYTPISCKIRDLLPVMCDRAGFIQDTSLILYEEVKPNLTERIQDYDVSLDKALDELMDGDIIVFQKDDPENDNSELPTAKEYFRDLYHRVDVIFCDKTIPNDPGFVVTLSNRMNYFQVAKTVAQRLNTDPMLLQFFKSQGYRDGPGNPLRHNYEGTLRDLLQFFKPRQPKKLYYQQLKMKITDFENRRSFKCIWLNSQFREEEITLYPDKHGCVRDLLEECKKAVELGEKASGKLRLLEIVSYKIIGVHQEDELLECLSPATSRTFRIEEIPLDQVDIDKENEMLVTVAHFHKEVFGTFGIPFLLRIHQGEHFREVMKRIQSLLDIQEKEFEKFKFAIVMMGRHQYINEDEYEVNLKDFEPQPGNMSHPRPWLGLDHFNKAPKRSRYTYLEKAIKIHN

Q: Which IC50 does the source give for `Cc1cc(Cl)cc(-c2ncnc3cc(Cn4c(C#N)cccc4=O)sc23)c1C[C@@H]1CNCC(C)(C)O1` [Example 262, (R)-1-((4-(5-chloro-2-((6,6-dimethylmorpholin-2-yl)methyl)-3-methylphenyl)thieno[3,2-d]pyrimidin-6-yl)methyl)-6-oxo-1,6-dihydropyridine-2-carbonitrile] here?
A: Its IC50 is > 0.1 µM.

Q: `Cc1cc(Cl)cc(-c2ccnc3cc(CN4C(=O)C5C(C4=O)C5(C)C)sc23)c1CC1CNCCO1` (stereo not shown) [Example 103, 3-((7-(5-chloro-3-methyl-2-(morpholin-2-ylmethyl)phenyl)thieno[3,2-b]pyridin-2-yl)methyl)-6,6-dimethyl-3-azabicyclo[3.1.0]hexane-2,4-dione] was tested. Which IC50 did it give?
A: The IC50 was < 0.01 µM.

Q: `Cc1cc(Cl)cc(-c2ncnc3cc(CN4C(=O)CN(CC(F)F)C4=O)sc23)c1CN1[C@@H](C)CNC[C@@H]1C` [Example 277, 3-((4-(5-chloro-2-(((2S,6S)-2,6-dimethylpiperazin-1-yl)methyl)-3-methylphenyl)thieno[3,2-d]pyrimidin-6-yl)methyl)-1-(2,2-difluoroethyl)imidazolidine-2,4-dione] was tested. Which IC50 did it give?
A: Its IC50 is < 0.01 µM.

Q: With `Cc1cc(Cl)cc(-c2ncnc3cc(CN4C(=O)[C@H]5CCCN5C4=O)sc23)c1CN1[C@@H](C)CNC[C@@H]1C` [Example 89, (R)-2-((4-(5-chloro-2-(((2S,6S)-2,6-dimethylpiperazin-1-yl)methyl)-3-methylphenyl)thieno[3,2-d]pyrimidin-6-yl)methyl)tetrahydro-1H-pyrrolo[1,2-c]imidazole-1,3(2H)-dione] as the molecule, how does the IC50 read?
A: Its IC50 is < 0.01 µM.

Q: `Cc1cc(Cl)cc(-c2ccnc3cc(Cn4c(=O)ccn(CC(F)(F)F)c4=O)sc23)c1CC1CNCCO1` (stereo not shown) [Example 109, 3-((7-(5-chloro-3-methyl-2-(morpholin-2-ylmethyl)phenyl)thieno[3,2-b]pyridin-2-yl)methyl)-1-(2,2,2-trifluoroethyl)pyrimidine-2,4(1H,3H)-dione] was tested. Which IC50 did it give?
A: The IC50 was < 0.01 µM.

Q: `Cc1cc(Cl)cc(-c2ccnc3cc(CN4C(=O)CCC4=O)sc23)c1CN1CCNC(C)(C)C1` [Example 10, 1-((7-(5-chloro-2-((3,3-dimethylpiperazin-1-yl)methyl)-3-methylphenyl)thieno[3,2-b]pyridin-2-yl)methyl)pyrrolidine-2,5-dione] was tested. Which IC50 did it give?
A: Its IC50 is < 0.01 µM.

Q: Which IC50 does the source give for `O=C1C2CC2C(=O)N1Cc1cc2nccc(-c3cc(Cl)cc(Cl)c3CC3CNCC4(CCC4)O3)c2s1` (stereo not shown) [Example 150, 3-((7-(2-((5-oxa-8-azaspiro[3.5]nonan-6-yl)methyl)-3,5-dichlorophenyl)thieno[3,2-b]pyridin-2-yl)methyl)-3-azabicyclo[3.1.0]hexane-2,4-dione] here?
A: Its IC50 is < 0.01 µM.

Q: Which IC50 does the source give for `Cc1cc(Cl)cc(-c2ncnc3cc(CN4C(=O)C5CC5C4=O)sc23)c1CC1CNCCOC1` (stereo not shown) [Example 185, 3-((4-(2-((1,4-oxazepan-6-yl)methyl)-5-chloro-3-methylphenyl)thieno[3,2-d]pyrimidin-6-yl)methyl)-3-azabicyclo[3.1.0]hexane-2,4-dione] here?
A: Its IC50 is 0.01 to 0.1 µM.

Q: `Cc1cc(Cl)cc(-c2ncnc3cc(CN4C(=O)CCN(C)C4=O)sc23)c1C[C@@H]1CNCC(C)(C)O1` [Example 217, (R)-3-((4-(5-chloro-2-((6,6-dimethylmorpholin-2-yl)methyl)-3-methylphenyl)thieno[3,2-d]pyrimidin-6-yl)methyl)-1-methyldihydropyrimidine-2,4(1H,3H)-dione] was tested. Which IC50 did it give?
A: The IC50 was < 0.01 µM.

Q: Which IC50 does the source give for `CN1CCC(=O)N(Cc2cc3nccc(-c4cc(Cl)cc(Cl)c4CC4CNCC(C)(C)O4)c3s2)C1=O` (stereo not shown) [Example 135, 3-((7-(3,5-dichloro-2-((6,6-dimethylmorpholin-2-yl)methyl)phenyl)thieno[3,2-b]pyridin-2-yl)methyl)-1-methyldihydropyrimidine-2,4(1H,3H)-dione] here?
A: Its IC50 is < 0.01 µM.

Q: For `Cc1cc(Cl)cc(-c2ncnc3cc(CN4C(=O)CCN(CC(F)(F)F)C4=O)sc23)c1CN1[C@@H](C)CNC[C@@H]1C` [Example 260, 3-((4-(5-chloro-2-(((2S,6S)-2,6-dimethylpiperazin-1-yl)methyl)-3-methylphenyl)thieno[3,2-d]pyrimidin-6-yl)methyl)-1-(2,2,2-trifluoroethyl)dihydropyrimidine-2,4(1H,3H)-dione], which IC50 is on record?
A: Its IC50 is < 0.01 µM.

Q: Which IC50 does the source give for `Cc1cc(Cl)cc(-c2ncnc3cc(CN4C(=O)CCN(C)C4=O)sc23)c1CC1CNCCO1` (stereo not shown) [Example 164, 3-((4-(5-chloro-3-methyl-2-(morpholin-2-ylmethyl)phenyl)thieno[3,2-d]pyrimidin-6-yl)methyl)-1-methyldihydropyrimidine-2,4(1H,3H)-dione] here?
A: The IC50 was < 0.01 µM.

Q: `Cc1cc(Cl)cc(-c2ccnc3cc(CN4C(=O)C5CC5C4=O)sc23)c1C[C@@H]1CNCCO1` (stereo partly drawn) [Example 123, 3-((7-(5-chloro-3-methyl-2-(((R)-morpholin-2-yl)methyl)phenyl)thieno[3,2-b]pyridin-2-yl)methyl)-3-azabicyclo[3.1.0]hexane-2,4-dione] was tested. Which IC50 did it give?
A: Its IC50 is < 0.01 µM.

Q: `Cc1cc(Cl)cc(-c2ncnc3cc(CN4C(=O)CNC4=O)sc23)c1C[C@@H]1CNCC(C)(C)O1` [Example 273, (R)-3-((4-(5-chloro-2-((6,6-dimethylmorpholin-2-yl)methyl)-3-methylphenyl)thieno[3,2-d]pyrimidin-6-yl)methyl)imidazolidine-2,4-dione] was tested. Which IC50 did it give?
A: Its IC50 is < 0.01 µM.

Q: `CC1(C)CNCC(Cc2c(Cl)cc(Cl)cc2-c2ccnc3cc(CN4C(=O)C5CC5C4=O)sc23)O1` (stereo not shown) [Example 139, 3-((7-(3,5-dichloro-2-((6,6-dimethylmorpholin-2-yl)methyl)phenyl)thieno[3,2-b]pyridin-2-yl)methyl)-3-azabicyclo[3.1.0]hexane-2,4-dione] was tested. Which IC50 did it give?
A: Its IC50 is < 0.01 µM.

Q: How did the IC50 turn out when `Cc1cc(Cl)cc(-c2ncnc3cc(CN4C(=O)CN(CC(F)(F)F)C4=O)sc23)c1CC1CNCCO1` (stereo not shown) [Example 176, 3-((4-(5-chloro-3-methyl-2-(morpholin-2-ylmethyl)phenyl)thieno[3,2-d]pyrimidin-6-yl)methyl)-1-(2,2,2-trifluoroethyl)imidazolidine-2,4-dione] was run?
A: Its IC50 is < 0.01 µM.

Q: With `Cc1cc(Cl)cc(-c2ncnc3cc(CN4C(=O)C5C(C4=O)C5(C)C)sc23)c1C[C@@H]1CN(C(=O)C(F)(F)F)CCO1` (stereo partly drawn) [Example 201, 3-((4-(5-chloro-3-methyl-2-(((R)-4-(2,2,2-trifluoroacetyl)morpholin-2-yl)methyl)phenyl)thieno[3,2-d]pyrimidin-6-yl)methyl)-6,6-dimethyl-3-azabicyclo[3.1.0]hexane-2,4-dione] as the molecule, how does the IC50 read?
A: The IC50 was 0.01 to 0.1 µM.

Q: Which IC50 does the source give for `Cc1cc(Cl)cc(-c2ncnc3cc(CN4C(=O)C5CC5C4=O)sc23)c1C[C@@H]1CN(C(=O)C(F)(F)F)CCO1` (stereo partly drawn) [Example 199, 3-((4-(5-chloro-3-methyl-2-(((R)-4-(2,2,2-trifluoroacetyl)morpholin-2-yl)methyl)phenyl)thieno[3,2-d]pyrimidin-6-yl)methyl)-3-azabicyclo[3.1.0]hexane-2,4-dione] here?
A: The IC50 was < 0.01 µM.

Q: `Cc1cc(Cl)cc(-c2ncnc3cc(CN4C(=O)CSC4=O)sc23)c1CC1CNCCO1` (stereo not shown) [Example 171, 3-((4-(5-chloro-3-methyl-2-(morpholin-2-ylmethyl)phenyl)thieno[3,2-d]pyrimidin-6-yl)methyl)thiazolidine-2,4-dione] was tested. Which IC50 did it give?
A: Its IC50 is < 0.01 µM.

Q: Which IC50 does the source give for `CC1(C)CNCC(Cc2c(Cl)cc(Cl)cc2-c2ncnc3cc(CN4C(=O)C5CC5C4=O)sc23)O1` (stereo not shown) [Example 227, 3-((4-(3,5-dichloro-2-((6,6-dimethylmorpholin-2-yl)methyl)phenyl)thieno[3,2-d]pyrimidin-6-yl)methyl)-3-azabicyclo[3.1.0]hexane-2,4-dione] here?
A: The IC50 was < 0.01 µM.

Q: For `Cc1cc(Cl)cc(-c2ncnc3cc(CN4C(=O)CCC4C(F)(F)F)sc23)c1CC1CNCC(C)(C)O1` (stereo not shown) [Example 194, 1-((4-(5-chloro-2-((6,6-dimethylmorpholin-2-yl)methyl)-3-methylphenyl)thieno[3,2-d]pyrimidin-6-yl)methyl)-5-(trifluoromethyl)pyrrolidin-2-one], which IC50 is on record?
A: Its IC50 is < 0.01 µM.

Q: How did the IC50 turn out when `Cc1cc(Cl)cc(-c2ncnc3cc(CN4C(=O)C5CC5C4=O)sc23)c1C[C@@H]1CNCCO1` (stereo partly drawn) [Example 182, 3-((4-(5-chloro-3-methyl-2-(((R)-morpholin-2-yl)methyl)phenyl)thieno[3,2-d]pyrimidin-6-yl)methyl)-3-azabicyclo[3.1.0]hexane-2,4-dione] was run?
A: Its IC50 is < 0.01 µM.

Q: How did the IC50 turn out when `Cc1cc(Cl)cc(-c2ccnc3cc(CN4C(=O)CCC4=O)sc23)c1CN1CCN(CCO)C[C@@H]1C` [Example 13, (S)-1-((7-(5-chloro-2-((4-(2-hydroxyethyl)-2-methylpiperazin-1-yl)methyl)-3-methylphenyl)thieno[3,2-b]pyridin-2-yl)methyl)pyrrolidine-2,5-dione] was run?
A: Its IC50 is < 0.01 µM.

Q: How did the IC50 turn out when `Cc1cc(Cl)cc(-c2ccnc3cc(CN4C(=O)CCC4=O)sc23)c1CN1[C@@H](C)CNC[C@@H]1C` [Example 14, 1-((7-(5-chloro-2-(((2S,6S)-2,6-dimethylpiperazin-1-yl)methyl)-3-methylphenyl)thieno[3,2-b]pyridin-2-yl)methyl)pyrrolidine-2,5-dione] was run?
A: The IC50 was < 0.01 µM.

Q: For `Cc1cc(Cl)cc(-c2ccnc3cc(CN4C(=O)C5CC5C4=O)sc23)c1CC1CNCCS1` (stereo not shown) [Example 113, 3-((7-(5-chloro-3-methyl-2-(thiomorpholin-2-ylmethyl)phenyl)thieno[3,2-b]pyridin-2-yl)methyl)-3-azabicyclo[3.1.0]hexane-2,4-dione], which IC50 is on record?
A: The IC50 was < 0.01 µM.

Q: With `Cc1cc(Cl)cc(-c2ncnc3cc(CN4C(=O)NC(C)C4=O)sc23)c1C[C@@H]1CNCCO1` (stereo partly drawn) [Example 244, 3-((4-(5-chloro-3-methyl-2-(((R)-morpholin-2-yl)methyl)phenyl)thieno[3,2-d]pyrimidin-6-yl)methyl)-5-methylimidazolidine-2,4-dione] as the molecule, how does the IC50 read?
A: The IC50 was < 0.01 µM.

Q: `Cc1cc(Cl)cc(-c2ccnc3cc(CN4C(=O)C5CCC5C4=O)sc23)c1CC1CNCCO1` (stereo not shown) [Example 110, 3-((7-(5-chloro-3-methyl-2-(morpholin-2-ylmethyl)phenyl)thieno[3,2-b]pyridin-2-yl)methyl)-3-azabicyclo[3.2.0]heptane-2,4-dione] was tested. Which IC50 did it give?
A: The IC50 was < 0.01 µM.

Q: For `CCC1CCC(=O)N1Cc1cc2ncnc(-c3cc(Cl)cc(C)c3C[C@@H]3CNCC(C)(C)O3)c2s1` (stereo partly drawn) [Example 232, 1-((4-(5-chloro-2-(((R)-6,6-dimethylmorpholin-2-yl)methyl)-3-methylphenyl)thieno[3,2-d]pyrimidin-6-yl)methyl)-5-ethylpyrrolidin-2-one], which IC50 is on record?
A: Its IC50 is 0.01 to 0.1 µM.
